Results on nine compounds are retold here after patent US5795907A, “Gastin and CCK receptor ligands” (James Black Foundation Limited, priority 1994, dated 1998).

In one assay the target is T1, CCKA (Cavia porcellus, UniProt Q63931).
T1 construct: The pancreatata were homogenised in 40 ml ice-cold HEPES buffer using a polytron; from tissue; host or cells: pancreas membranes of male Dunkin Hartley guinea-pigs
T1 sequence (Q63931 1-430): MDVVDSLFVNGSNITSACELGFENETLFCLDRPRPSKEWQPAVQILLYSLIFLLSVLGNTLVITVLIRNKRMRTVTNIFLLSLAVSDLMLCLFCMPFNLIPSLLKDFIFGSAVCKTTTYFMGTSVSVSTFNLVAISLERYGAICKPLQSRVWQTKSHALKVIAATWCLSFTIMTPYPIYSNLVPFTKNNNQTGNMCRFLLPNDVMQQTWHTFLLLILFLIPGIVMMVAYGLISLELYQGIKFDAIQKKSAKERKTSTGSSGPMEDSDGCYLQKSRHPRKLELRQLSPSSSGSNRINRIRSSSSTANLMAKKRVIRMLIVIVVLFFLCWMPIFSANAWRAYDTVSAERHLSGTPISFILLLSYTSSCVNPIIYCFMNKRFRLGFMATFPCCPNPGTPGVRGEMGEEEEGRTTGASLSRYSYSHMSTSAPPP
The assay can be described thus: CCKA radioligand binding assay in guinea-pig pancreas membranes ([125I]-CCK8(S)). The settings on record: PD134,308 present, 150 minutes at 21±3°; for Ki: read-out: CCKA pKi (converted). The procedure, abridged: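 Male guinea-pig pancreas membranes (1 mg/ml wet tissue in HEPES pH 7.2, suspension containing 0.375 μM PD134,308) were incubated 150 min at 21±3° with [125I]-CCK8(S) ([…] added solution) and competitor. Non-specific binding used 100 nM L-364,718 (added solution). Bound radioligand was measured by GF/B filtration and gamma counting.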

The target of a further assay is T2, CCKB receptor (Mus musculus, UniProt P56481).
T2 construct: The cortex was dissected, weighed and homogenised in 40ml ice-cold buffer; tissue Charles River (supplier of the CD1 mice); host or cells: cerebral cortex membranes of male CD1 mice
T2 sequence (P56481 1-453): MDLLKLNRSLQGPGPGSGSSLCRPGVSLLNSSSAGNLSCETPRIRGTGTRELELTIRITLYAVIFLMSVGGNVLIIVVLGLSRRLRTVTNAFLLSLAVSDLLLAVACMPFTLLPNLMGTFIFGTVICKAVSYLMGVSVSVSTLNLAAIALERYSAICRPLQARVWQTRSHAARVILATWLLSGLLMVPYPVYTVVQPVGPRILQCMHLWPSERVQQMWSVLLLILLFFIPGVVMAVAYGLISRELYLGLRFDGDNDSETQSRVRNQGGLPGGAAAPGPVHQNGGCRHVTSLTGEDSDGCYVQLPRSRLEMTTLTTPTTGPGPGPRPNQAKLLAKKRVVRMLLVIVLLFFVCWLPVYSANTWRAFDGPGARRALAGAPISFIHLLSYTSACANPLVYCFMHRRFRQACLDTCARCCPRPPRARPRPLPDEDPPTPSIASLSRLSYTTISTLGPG
The assay can be described thus: CCKB receptor radioligand binding assay in mouse cortical membranes ([125I]-CCK8S). The conditions noted are these: [125I]-CCK8S 200 pM, 150 min at 21±3°; for Ki: read-out: CCKB pKi (converted). An outline of the steps: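 Cortical membranes from male CD1 mice in HEPES buffer (pH 7.2; NaCl, KCl, MgCl2, EDTA, bacitracin) were incubated with competing compound and [125I]-CCK8S (added as a 200 pM solution) for 150 min at 21±3°. Non-specific binding was defined with L-365,260. Bound tracer was separated by GF/B filtration and counted by gamma counting.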

Another assay addresses T3, gastrin (Rattus norvegicus, UniProt P30553).
T3 construct: The stomach was lowered into a jacketed organ bath containing 40 ml of buffered solution; from tissue; host or cells: isolated perfused whole stomach of immature rats (ca. 21 days old)
T3 sequence (P30553 1-452): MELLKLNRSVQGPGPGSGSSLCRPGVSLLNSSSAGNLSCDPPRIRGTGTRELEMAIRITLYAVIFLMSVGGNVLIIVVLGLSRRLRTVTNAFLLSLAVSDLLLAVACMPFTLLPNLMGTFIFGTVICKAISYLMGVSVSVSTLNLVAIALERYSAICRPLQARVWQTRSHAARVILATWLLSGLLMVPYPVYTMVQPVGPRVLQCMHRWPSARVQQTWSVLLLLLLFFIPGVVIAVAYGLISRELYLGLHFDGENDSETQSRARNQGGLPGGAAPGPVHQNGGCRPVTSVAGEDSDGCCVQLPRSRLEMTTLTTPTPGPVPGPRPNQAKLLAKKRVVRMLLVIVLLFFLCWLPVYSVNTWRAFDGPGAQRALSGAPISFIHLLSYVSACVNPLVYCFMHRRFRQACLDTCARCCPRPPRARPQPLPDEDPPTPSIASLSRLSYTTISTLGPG
Nature of the assay: gastrin antagonist activity in an immature rat stomach assay (pentagastrin-stimulated acid secretion). The settings on record: cumulative pentagastrin dose-response curves after 60 min with drug; for Kb: read-out: Gastrin pKB (converted). An outline of the steps: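 Isolated lumen-perfused immature rat stomach (33-50 g, ca. 21 days) in 37° organ bath with 3×10^-8 M 5-methylfurmethide; acid secretion read by pH electrode in perfusate. Compound added to serosal bath after 120 min stabilisation; cumulative pentagastrin dose-response curves begun 60 min later and analysed by the Black et al. method.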

For `COC(=O)[C@H](C)NC(=O)c1cc2ccccc2cc1C(=O)NCC12CC3CC(CC(C3)C1)C2` [Example 2, 2-(1S-methoxycarbonyl-ethylaminocarbonyl)-3-(1-adamantanemethylaminocarbonyl)-naphthalene], the Ki at CCKA is 12600 nM; on CCKB receptor, 3160 nM. The Kb at gastrin was 1000 nM.
For the compound `O=C(O)c1cc(NC(=O)[C@H](Cc2ccccc2)NC(=O)c2cc3ccsc3cc2C(=O)NCC23CC4CC(CC(C4)C2)C3)cc(C(=O)O)c1` [Example 125, 5-(1S-(3,5-dicarboxyphenylaminocarbonyl)-2-phenylethylaminocarbonyl)-6-(1-adamantanemethylaminocarbonyl)-benzothiophene], the “CCKA pKi” value on CCKA was 5.7. Also, on CCKB receptor, the “CCKB pKi” value came out at 8.9. The “Gastrin pKB” value on gastrin is recorded as 9.4.
Consider `O=C(O)c1cc(NC(=O)[C@H](Cc2ccccc2F)NC(=O)c2cc3cc[nH]c3cc2C(=O)NCC23CC4CC(CC(C4)C2)C3)cc(C(=O)O)c1` [Example 87, 5-(1S-(3,5-dicarboxyphenylaminocarbonyl)-2-(2-fluorophenyl)ethylaminocarbonyl)-6-(1-adamantanemethylaminocarbonyl)-indole], for which the Ki was 3160 nM at CCKA and 0.794 nM on CCKB receptor. Further, on gastrin, the Kb is 0.251 nM.
For `O=C(O)c1cc(NC(=O)[C@H](Cc2ccc(F)cc2)NC(=O)c2cc3[nH]cnc3cc2C(=O)NCC23CC4CC(CC(C4)C2)C3)cc(C(=O)O)c1` [Example 132, 5-(1S-(3,5-dicarboxyphenylaminocarbonyl)-2-(4-fluorophenyl)ethylaminocarbonyl)-6-(1-adamantanemethylaminocarbonyl)-benzimidazole] the same measures were 3980 nM, 3.98 nM and 1 nM.
`C[C@@H](NC(=O)C[C@@H]1CCCN1C(=O)c1cc2ccccc2cc1C(=O)NCC12CC3CC(CC(C3)C1)C2)C(=O)O` [Example 16, 2-(2S-(1R-carboxyethylaminocarbonylmethyl)-pyrrolidinocarbonyl)-3-(1-adamantanemethylaminocarbonyl)-naphthalene]: the “CCKA pKi” value at CCKA is 5.5. Also, the “CCKB pKi” value on CCKB receptor is recorded as 5.6. For the same compound, the “Gastrin pKB” value at gastrin came to 6.2.
Consider `C[C@H](NC(=O)c1cc2cc[nH]c2cc1C(=O)NCC12CC3CC(CC(C3)C1)C2)C(=O)Nc1cc(C(=O)O)cc(C(=O)O)c1` [Example 47, 5-(1S-(3,5-dicarboxyphenylaminocarbonyl)-ethylaminocarbonyl)-6-(1-adamantanemethylaminocarbonyl)-indole], for which the Ki on CCKA was 6310 nM; on CCKB receptor, 158 nM. In addition, the Kb on gastrin was 5.01 nM.
For `O=C(NCC12CC3CC(CC(C3)C1)C2)c1cc2nc[nH]c2cc1C(=O)N[C@@H](Cc1ccccc1)C(=O)Nc1cccc(S(=O)(=O)NC(=O)C(F)(F)F)c1` [Example 128, 5-(1S-(3-trifluoroacetylaminosulphonylphenylaminocarbonyl)-2-phenylethylaminocarbonyl)-6-(1-adamantanemethylaminocarbonyl)-benzimidazole], the Ki at CCKA was 2000 nM; at CCKB receptor, 6.31 nM. Besides, the Kb at gastrin is 2.51 nM.
Turning to “5-(1S-(3,5-dicarboxyphenylaminocarbonyl)-2-(3-fluorophenyl)ethylaminocarbonyl)-6-(1-adamantanemethylaminocarbonyl)-indole and regioisomer with substituents at positions 5 and 6 reversed [Example 28]”, at CCKA, the “CCKA pKi” value stood at 5.4. Besides, at CCKB receptor, the “CCKB pKi” value worked out at 8.5. Further, the “Gastrin pKB” value at gastrin is 9.7.
On to `O=C(O)c1cc(NC(=O)[C@H](Cc2ccccc2F)NC(=O)c2cc3[nH]ccc3cc2C(=O)NCC23CC4CC(CC(C4)C2)C3)cc(C(=O)O)c1` [Example 88, 6-(1S-(3,5-dicarboxyphenylaminocarbonyl)-2-(2-25 fluorophenyl)ethylaminocarbonyl)-5-(1-adamantaneinetnyl-aminocarbonyl)-indole], for which the Ki on CCKA is 2510 nM; at CCKB receptor, 5.01 nM. Also, on gastrin, the Kb was 2.51 nM.
